This note sets out measurements from patent US8318749B2, “Quinazoline derivatives as NK3 receptor antagonists” (Hoffmann-La Roche Inc., priority 2008, dated 2012).

In general, pKi refers to the negative decadic logarithm of the Ki, by convention in mol/L.

Each structure is given as a SMILES string. pKi: −log10 of the molar value.

The test has as its target T1, recombinant human NK3 receptor (Homo sapiens, UniProt P29371).
T1 construct: expressed in transfected cells; host or cells: HEK293 cells (transient expression), membrane preparation
T1 sequence (P29371 1-465): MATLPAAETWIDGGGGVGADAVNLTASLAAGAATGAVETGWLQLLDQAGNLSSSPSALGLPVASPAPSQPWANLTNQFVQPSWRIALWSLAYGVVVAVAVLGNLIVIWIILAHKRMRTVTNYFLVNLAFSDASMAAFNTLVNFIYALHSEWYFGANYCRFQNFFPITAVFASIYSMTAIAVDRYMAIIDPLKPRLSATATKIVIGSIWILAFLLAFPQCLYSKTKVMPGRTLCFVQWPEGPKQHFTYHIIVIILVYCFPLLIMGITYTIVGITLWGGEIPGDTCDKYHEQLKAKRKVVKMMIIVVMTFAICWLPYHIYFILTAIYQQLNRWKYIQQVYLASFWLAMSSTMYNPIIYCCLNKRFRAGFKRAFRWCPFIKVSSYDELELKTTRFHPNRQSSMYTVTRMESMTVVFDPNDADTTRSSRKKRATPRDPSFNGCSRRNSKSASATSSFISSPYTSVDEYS
Briefly: [3H]SR142801 competition binding assay. The conditions noted are these: membrane from HEK293 cells transiently expressing recombinant human NK3 receptor; radioligand [3H]SR142801; 75 min at RT. How it is done: [^3H]SR142801 Competition Binding Assay
hNK3 receptor binding experiment were performed using [^3H]SR142801 (Catalog No. TRK1035, specific activity: 74.0 Ci/mmol, Amersham, GE Healthcare UK limited, Buckinghamshire, UK) and membrane isolated from HEK293 cells transiently expressing recombinant human NK3 receptor. After thawing, the membrane homogenates were centrifuged at 48,000×g for 10 min at 4° C., the pellets were resuspended in the 50 mM Tris-HCl, 4 mM MnCl2, 1 μM phosphoramidon, 0.1% BSA binding buffer at pH 7.4 to a final assay concentration of 5 μg protein/well. […] At the end of the incubation, membranes were filtered onto unitfilter (96-well white microplate with bonded GF/C filter preincubated 1 h in 0.3% PEI+0.3% BSA, Packard BioScience, Meriden, Conn.) with a Filtermate 196 harvester (Packard BioScience) and washed 4 times with ice-cold 50 mM Tris-HCl, pH 7.4 buffer. Nonspecific binding was measured in the presence of 10 μM SB222200 for both radioligands. The radioactivity on the filter was counted (5 min) on a Packard Top-count microplate scintillation counter with quenching correction after addition of 45 μl of microscint 40 (Canberra Packard S.A., Zürich, Switzerland) and shaking for 1 h. Inhibition curves were fitted according to the Hill equation: y=100/(1+(x/IC50)^nH), where nH=slope factor using Excel-fit 4 software (Microsoft). IC50 values were derived from the inhibition curve and the affinity constant (Ki) values were calculated using the Cheng-Prussoff equation Ki=IC50/(1+[L]/KD) where [L] is the concentration of radioligand and KD is its dissociation constant at the receptor, derived from the saturation isotherm. All experiments were performed in duplicate and the mean±standard error (SEM) of the individual Ki values was calculated.
For the molecule `COc1cc2nc(N3CCC(Cc4ccccc4)(C(=O)NCc4ccccc4)CC3)nc(O)c2cc1Cl` [Example 93, 4-Benzyl-1-(6-chloro-4-hydroxy-7-methoxy-quinazolin-2-yl)-piperidine-4-carboxylic acid benzylamide], the pKi was 8.04.
On to `CC[C@@H](NC(=O)C1(Cc2ccccc2)CCN(c2nc(N)c3cc(OC)c(OC)cc3n2)CC1)c1ccccc1` [Example 51, 1-(4-Amino-6,7-dimethoxy-quinazolin-2-yl)-4-benyzl-piperidine-4-carboxylic acid ((R)-1-phenyl-propyl)-amide], for which the pKi is 7.78.
Under `COc1cc2nc(N3CCC(Cc4ccccc4)(C(=O)NC4CCc5ccccc5C4O)CC3)nc(O)c2cc1OC` (centres unmarked) [Example 68, 4-Benzyl-1-(4-hydroxy-6,7-dimethoxy-quinazolin-2-yl)-piperidine-4-carboxylic acid (1-hydroxy-1,2,3,4-tetrahydro-naphthalen-2-yl)-amide] stands 7.08; under `O=C(NCc1ccccc1)C1(Cc2ccccc2)CCN(c2nc(O)c3ccc(C(F)(F)F)cc3n2)CC1` [Example 98, 4-Benzyl-1-(4-hydroxy-7-trifluoromethyl-quinazolin-2-yl)-piperidine-4-carboxylic acid benzylamide], 8.21; under `COc1cc2nc(N3CCC(Cc4ccccc4)(C(=O)N[C@H]4c5ccccc5C[C@@H]4O)CC3)nc(N)c2cc1OC` [Example 39, 1-(4-Amino-6,7-dimethoxy-quinazolin-2-yl)-4-benzyl-piperidine-4-carboxylic acid ((1S,2S)-2-hydroxy-indan-1-yl)-amide], 8.44.
Turning to `O=C(NCc1ccccc1)C1(Cc2ccccc2)CCN(c2nc(O)c3cc(F)c(Cl)cc3n2)CC1` [Example 16, 4-Benzyl-1-(7-chloro-6-fluoro-4-hydroxy-quinazolin-2-yl)-piperidine-4-carboxylic acid benzylamide], the negative logarithm of the Ki (pKi) was 7.46.
On to `COc1cc2nc(N3CCC(Cc4ccccc4)(C(=O)NC4CCCC4)CC3)nc(O)c2cc1OC` [Example 53, 4-Benzyl-1-(4-hydroxy-6,7-dimethoxy-quinazolin-2-yl)-piperidine-4-carboxylic acid cyclopentylamide], for which the pKi is 7.60.
In the case of `COc1cc2nc(N3CCC(Cc4ccccc4)(C(=O)N[C@H](C)c4ccccc4)CC3)nc(N)c2cc1OC` [Example 49, 1-(4-Amino-6,7-dimethoxy-quinazolin-2-yl)-4-benzyl-piperidine-4-carboxylic acid ((R)-1-phenyl-ethyl)-amide], the pKi is 7.69.
Consider `COc1cc2nc(N3CCC(Cc4ccccc4)(C(=O)NCc4ccccc4)CC3)nc(NC3CC3)c2cc1OC` [Example 15, 4-Benzyl-1-(4-cyclopropylamino-6,7-dimethoxy-quinazolin-2-yl)-piperidine-4-carboxylic acid benzylamide], for which the negative-log Ki (pKi) was 7.16.
On to `COc1cc2nc(N3CCC(Cc4ccccc4)(C(=O)NCc4ccccc4)CC3)nc(O)c2cc1C` [Example 90, 4-Benzyl-1-(4-hydroxy-7-methoxy-6-methyl-quinazolin-2-yl)-piperidine-4-carboxylic acid benzylamide], for which the pKi is 7.88.
As to `COc1cc2nc(N3CCC(Cc4ccccc4)(C(=O)NC4CCc5ccccc54)CC3)nc(N)c2cc1OC` (centres unmarked) [Example 44, 1-(4-Amino-6,7-dimethoxy-quinazolin-2-yl)-4-benzyl-piperidine-4-carboxylic acid indan-1-ylamide], the pKi was 8.27.
`COc1cc2nc(N3CCC(Cc4ccccc4)(C(=O)NC4CCc5ccccc5C4)CC3)nc(O)c2cc1OC` (centres unmarked) [Example 58, 4-Benzyl-1-(4-hydroxy-6,7-dimethoxy-quinazolin-2-yl)-piperidine-4-carboxylic acid (1,2,3,4-tetrahydro-naphthalen-2-yl)-amide]: the pKi is 8.42.
Under `COc1cc2nc(N3CCC(Cc4ccccc4)(C(=O)NCc4ccccc4)CC3)nc(N(C)C)c2cc1OC` [Example 14, 4-Benzyl-1-(4-dimethylamino-6,7-dimethoxy-quinazolin-2-yl)-piperidine-4-carboxylic acid benzylamide] stands 7.14.
Consider `COc1cc2nc(N3CCC(CC4CCC4)(C(=O)NC4CCCC4)CC3)nc(O)c2cc1OC` [Example 78, 4-Cyclobutylmethyl-1-(4-hydroxy-6,7-dimethoxy-quinazolin-2-yl)-piperidine-4-carboxylic acid cyclopentylamide], for which the pKi was 7.18.
On to `CCOc1cc2nc(N3CCC(Cc4ccccc4)(C(=O)NCc4ccccc4)CC3)nc(O)c2cc1OC(F)F` [Example 94, 4-Benzyl-1-(6-difluoromethoxy-7-ethoxy-4-hydroxy-quinazolin-2-yl)-piperidine-4-carboxylic acid benzylamide], for which the pKi is 8.08.
`COc1cc2nc(N3CCC(Cc4ccccc4)(C(=O)NCc4ccccc4)CC3)nc(O)c2cc1OC` [Example 17, 4-Benzyl-1-(4-hydroxy-6,7-dimethoxy-quinazolin-2-yl)-piperdine-4-carboxylic acid benzylamide]: the negative logarithm of the Ki (pKi) is 8.44.
Turning to `COc1cc2nc(N3CCC(Cc4ccccc4)(C(=O)NC4Cc5cc(Cl)ccc5C4O)CC3)nc(O)c2cc1OC` (centres unmarked) [Example 65, 4-Benzyl-1-(4-hydroxy-6,7-dimethoxy-quinazolin-2-yl)-piperidine-4-carboxylic acid (5-chloro-1-hydroxy-indan-2-yl)-amide], the pKi was 7.29.
For the molecule `COc1cc2nc(N3CCC(Cc4ccccc4)(C(=O)NC4CCc5ccccc5C4)CC3)nc(N)c2cc1OC` (centres unmarked) [Example 40, 1-(4-Amino-6,7-dimethoxy-quinazolin-2-yl)-4-benzyl-piperidine-4-carboxylic acid (1,2,3,4-tetrahydro-naphthalen-2-yl)-amide], the pKi was 8.00.
With `COc1cc2c(O)nc(N3CCC(Cc4ccccc4)(C(=O)NCc4ccccc4)CC3)nc2cc1OC(C)C` [Example 92, 4-Benyzl-1-(4-hydroxy-7-isopropoxy-6-methoxy-quinazolin-2-yl)-piperidine-4-carboxylic acid benzylamide], the negative-log Ki (pKi) is 7.67.
On to `CC(C)Oc1ccc2c(O)nc(N3CCC(Cc4ccccc4)(C(=O)NCc4ccccc4)CC3)nc2c1` [Example 96, 4-Benzyl-1-(4-hydroxy-7-isopropoxy-quinazolin-2-yl)-piperidine-4-carboxylic acid benzylamide], for which the pKi is 7.95.
With `COc1cc2nc(N3CCC(Cc4ccccc4)(C(=O)N(C)C4Cc5ccccc5C4)CC3)nc(O)c2cc1OC` [Example 57, 4-Benzyl-1-(4-hydroxy-6,7-dimethoxy-quinazolin-2-yl)-piperidine-4-carboxylic acid indan-2-yl-methyl-amide], the negative logarithm of the Ki (pKi) was 7.20.
Take `COc1cc2nc(N3CCC(Cc4ccccc4)(C(=O)NCc4ccc(OC(F)F)cc4)CC3)nc(N)c2cc1OC` [Example 20, 1-(4-Amino-6,7-dimethoxy-quinazolin-2-yl)-4-benzyl-piperidine-4-carboxylic acid 4-difluoromethoxy-benzylamide]: the pKi is 7.33.
For the molecule `COc1cc2nc(N3CCC(Cc4ccccc4)(C(=O)NCc4ccccc4)CC3)nc(O)c2cc1OC(C)C` [Example 91, 4-Benzyl-1-(4-hydroxy-6-isopropoxy-7-methoxy-quinazolin-2-yl)-piperidine-4-carboxylic acid benzylamide], the pKi was 8.27.
